Measured values published in patent US20160213729A1, “FILIPENDULA VULGARIS EXTRACT AND USES THEREOF” (ABOCA S.P.A. SOCIETA' AGRICOLA, priority 2013, published 2016).

Key:
Format in all cases: cell-based, human
MSTO211H cells = assay: Comet assay, MSTO211H; conditions: single agent
Experimental: (§6) After the treatment, the cells were trypsinized and immersed in 1% low-melting agarose (Sigma) in PBS and spread onto microscope slides coated beforehand with 1% agarose (Bio-Rad). The cells were lysed in the lysis solution (2.5 M NaCl, 100 mM EDTA, 10 mM Tris base, 8 g/l NaOH, 1% Triton X-100, 10% DMSO) for 1 hour at room temperature and then run into the running solution (300 mM NaOH, 1 mM EDTA, pH 13.0) for 30 minutes, at 25 V and 250 mA. DNA was balanced with 0.4 M Tris, pH 8.0, and the slides dried with methanol. Propidium iodide-DNA (Sigma) and the figures images were taken by using an Axiovert 200M microscope with 40× magnification and an Axiovision (Zeiss) image acquisition software. At least 300 cells per each slide were recorded.

[1] = tested on: untransformed normal mesothelial cells (HMC); assay: Comet assay, HMC; conditions: single agent
Experimental: as §6

[2] = tested on: mesothelioma cell lines MPM NCl-H2052; assay: Cell vitality (ATPlite) in co-treatment with pemetrexed, NCl-H2052
Experimental: (§1) Cell lines MSTO211H and NCl-H2052 were used to evaluate the effects of the association of extract of Filipendula vulgaris±anti-tumour drug.
(§2) The assay shown in FIG. 10 was performed using ATPlite™ assay (Perkin Elmer) in accordance with the producer's instructions.
(§3) A solution of water for injectable solutions and ethanol at a concentration of 1:1 was used in the same volumes used for the treatments.
(§4) pemetrexed (Alimta, Lilly) diluted in accordance with the producer's instructions.
(§5) The concentrations of the assayed compound are plotted on the abscissa, whereas the cell vitality expressed in percentage is plotted on the ordinate.

[3] = tested on: mesothelioma cell lines MPM MSTO211H; assay: Cell vitality (ATPlite) in co-treatment with pemetrexed, MSTO211H
Experimental: as §1, §2, §3, §4, §5

mesothelial cells (HMC) = assay: Cell vitality (ATPlite) in co-treatment with pemetrexed, HMC; conditions: pemetrexed alone
Experimental: as §2, §3, §4, §5

SMILES | DNA damage / fragmentation (MSTO211H cells) | DNA damage / fragmentation [1] | concentration of pemetrexed sufficient to lower the cell vitality in double treatment ([2]; NCl-H2052, double treatment with extract 6 μg/ml) | cell vitality, single agent ([2]; NCl-H2052, pemetrexed alone) | concentration of pemetrexed sufficient to lower the cell vitality in double treatment ([3]; double treatment with extract 6 μg/ml) | cell vitality, single agent ([3]; pemetrexed alone) | toxicity for non-tumour cells, single agent (mesothelial cells (HMC))
N.N.[Cl][Pt][Cl] [CDDP, cis-diamminedichloroplatinum] | induces DNA fragmentation | induces DNA fragmentation |  |  |  |  | 
Nc1nc2[nH]cc(CCc3ccc(C(=O)N[C@@H](CCC(=O)O)C(=O)O)cc3)c2c(=O)[nH]1 [PMTX, pemetrexed] |  |  | 10 µM | cytotoxic for the MPM cells | 10 µM | cytotoxic for the MPM cells | highly toxic for the non-tumour cells
